Experimental data: US11753446B2, “Beta-hairpin peptidomimetics” (POLYPHOR AG, priority 2014, dated 2023)
Read-outs that look alike come from different tables or passages of the source. Where a SMILES comes first, the peptide text is derived from it. Bridges are numbered along the chain shown (N, C = ends). [ ]: non-standard residue; d: D form. Tle = CC(C)(C)[C@H](N)C(=O)O; dDab = NCC[C@@H](N)C(=O)O; Orn = NCCC[C@H](N)C(=O)O; Dab = NCC[C@H](N)C(=O)O

What was measured:
[1] = test system: human red blood cells (hRBC); assay: Hemolysis: hemolytic activity at 100 μg/mL, 1 h at 37° C.
Outline: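 Peptides at 100 μg/mL incubated with washed 20% (v/v) human erythrocytes (~0.9×10^9 cells/mL) for 1 h at 37 °C with shaking. Released hemoglobin read at OD 540 nm in supernatant; 0% and 100% lysis from PBS/0.001% acetic acid and 2.5% Triton X-100.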

[2] = test system: Klebsiella pneumoniae ATCC 13883; type: cell-based
Outline: (§1)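 Peptide MICs were determined by NCCLS broth microdilution in cation-adjusted Mueller-Hinton II broth. Inoculum was about 10^6 CFU/mL, matched to 0.5 McFarland, with peptides in two-fold serial dilutions. The broth contained Polysorbate 80 at 0.002% final concentration.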

[3] = test system: Escherichia coli ATCC 25922; type: cell-based
Outline: as §1

[4] = test system: Acinetobacter baumannii DSM 30008; type: cell-based
Outline: as §1

[5] = red cells of human, 1 h, 100 μg/mL
[6] = 100 μg/mL, 20% hRBC, 1 h at 37° C.
[7] = Mueller-Hinton II broth, 18-20 hours at 35° C.

Structure (SMILES)	Hemolysis at 100 μg/mL [1, 5] [%]	Klebsiella pneumoniae ATCC 13883 MIC ([2]; ATCC 13883) [µg/mL]	Escherichia coli ATCC 25922 MIC ([3]; ATCC 25922) [µg/mL]	Acinetobacter baumannii DSM 30008 MIC ([4]; DSM 30008) [µg/mL]	Hemolysis at 100 μg/mL [1, 6] [%]	Klebsiella pneumoniae ATCC 13883 MIC [2, 7] [µg/mL]	Escherichia coli ATCC 25922 MIC [3, 7] [µg/mL]	Acinetobacter baumannii DSM 30008 MIC [4, 7] [µg/mL]	Hemolysis at 100 μg/mL ([1]; red cells of human, 1 h, 100) [%]
CC(C)C[C@@H]1NC(=O)[C@H](CCCNC(=N)N)NC(=O)[C@H]2CCCN2C(=O)[C@H](C(C)C)NC(=O)[C@@H]2CSSC[C@H](NC1=O)C(=O)N[C@@H](Cc1ccc(O)cc1)C(=O)N[C@H]1CSSC[C@H](NC(=O)[C@H](Cc3c[nH]c4ccccc34)NC(=O)[C@H](CCN)NC(=O)[C@H](CCN)NC(=O)[C@H](CCN)NC1=O)C(=O)N[C@@H](Cc1ccc(O)cc1)C(=O)N2 [Example 42, cyclo(-Leu-Cys-Tyr-Cys-Dab-Dab-Dab-Trp-Cys-Tyr-Cys-Val-^DPro-Arg-)] (HELM PEPTIDE1{C.[Dab].[Dab].[Dab].W.C.Y.C.V.[dP].R.L.C.Y}$PEPTIDE1,PEPTIDE1,1:R3-6:R3|PEPTIDE1,PEPTIDE1,8:R3-13:R3|PEPTIDE1,PEPTIDE1,1:R1-14:R2$$$V2.0)	3	2	4	1					
CC(C)C[C@@H]1NC(=O)[C@H](CCCNC(=N)N)NC(=O)[C@@H](CCN)NC(=O)[C@H](C(C)(C)C)NC(=O)[C@@H]2CSSC[C@H](NC1=O)C(=O)N[C@@H](Cc1ccc(O)cc1)C(=O)N[C@@H](CC(N)=O)C(=O)N[C@@H](CCCN)C(=O)N[C@H](CCN)C(=O)N[C@@H](CCN)C(=O)N[C@@H](Cc1c[nH]c3ccccc13)C(=O)N[C@@H](CO)C(=O)N[C@@H](Cc1ccc(O)cc1)C(=O)N2 [Example 64, cyclo(-Leu-Cys-Tyr-Asn-Orn-^DDab-Dab-Trp-Ser-Tyr-Cys-tBuGly-^DDab-Arg-)] (cyclo(C[Tle][dDab]RLCYN[Orn][dDab][Dab]WSY); disulfide 1-6)					1	1	1	1.125	
CC(C)C[C@@H]1NC(=O)[C@H](CCN)NC(=O)[C@@H](CCN)NC(=O)[C@H](C(C)C)NC(=O)[C@@H]2CSSC[C@H](NC1=O)C(=O)N[C@@H](Cc1ccc(O)cc1)C(=O)N[C@@H](CC(N)=O)C(=O)N[C@@H](CCCN)C(=O)N[C@H](CCN)C(=O)N[C@@H](CCN)C(=O)N[C@@H](Cc1c[nH]c3ccccc13)C(=O)N[C@@H](CC(N)=O)C(=O)N[C@@H](Cc1ccc(O)cc1)C(=O)N2 [Example 54, cyclo(-Leu-Cys-Tyr-Asn-Orn-^DDab-Dab-Trp-Asn-Tyr-Cys-Val-^DDab-Dab-)] (HELM PEPTIDE1{C.V.[NCC[C@@H](N[*:1])C(=O)[*:2]].[Dab].L.C.Y.N.[Orn].[NCC[C@@H](N[*:1])C(=O)[*:2]].[Dab].W.N.Y}$PEPTIDE1,PEPTIDE1,1:R3-6:R3|PEPTIDE1,PEPTIDE1,1:R1-14:R2$$$V2.0)		1	0.75	1.25					3
CC(C)C[C@@H]1NC(=O)[C@H](CCCCN)NC(=O)[C@@H](CCN)NC(=O)[C@H](C(C)C)NC(=O)[C@@H]2CSSC[C@H](NC1=O)C(=O)N[C@@H](Cc1ccc(O)cc1)C(=O)N[C@@H](CC(N)=O)C(=O)N[C@@H](CCCN)C(=O)N[C@H](CCN)C(=O)N[C@@H](CCN)C(=O)N[C@@H](Cc1c[nH]c3ccccc13)C(=O)N[C@@H](CO)C(=O)N[C@@H](Cc1ccc(O)cc1)C(=O)N2 [Example 67, cyclo(-Leu-Cys-Tyr-Asn-Orn-^DDab-Dab-Trp-Ser-Tyr-Cys-Val-^DDab-Lys-)] (HELM PEPTIDE1{C.V.[NCC[C@@H](N[*:1])C(=O)[*:2]].K.L.C.Y.N.[Orn].[NCC[C@@H](N[*:1])C(=O)[*:2]].[Dab].W.S.Y}$PEPTIDE1,PEPTIDE1,1:R3-6:R3|PEPTIDE1,PEPTIDE1,1:R1-14:R2$$$V2.0)					1	1	1	1.5	
CC[C@H](C)[C@@H]1NC(=O)[C@H](CCCNC(=N)N)NC(=O)[C@@H](CCN)NC(=O)[C@H](C(C)C)NC(=O)[C@@H]2CSSC[C@H](NC1=O)C(=O)N[C@@H](Cc1ccc(O)cc1)C(=O)N[C@@H](CC(N)=O)C(=O)N[C@@H](CCCN)C(=O)N[C@H](CCN)C(=O)N[C@@H](CCN)C(=O)N[C@@H](Cc1c[nH]c3ccccc13)C(=O)N[C@@H](CO)C(=O)N[C@@H](Cc1ccc(O)cc1)C(=O)N2 [Example 70, cyclo(-Ile-Cys-Tyr-Asn-Orn-^DDab-Dab-Trp-Ser-Tyr-Cys-Val-^DDab-Arg-)] (HELM PEPTIDE1{C.V.[NCC[C@@H](N[*:1])C(=O)[*:2]].R.I.C.Y.N.[Orn].[NCC[C@@H](N[*:1])C(=O)[*:2]].[Dab].W.S.Y}$PEPTIDE1,PEPTIDE1,1:R3-6:R3|PEPTIDE1,PEPTIDE1,1:R1-14:R2$$$V2.0)		1	1	2.25					1
CC(C)C[C@@H]1NC(=O)[C@H](CCCNC(=N)N)NC(=O)[C@H]2CCCN2C(=O)[C@H](C(C)C)NC(=O)[C@@H]2CSSC[C@H](NC1=O)C(=O)N[C@@H](Cc1ccc(O)cc1)C(=O)N[C@H]1CSSC[C@H](NC(=O)[C@H](Cc3c[nH]c4ccccc34)NC(=O)[C@H](CCN)NC(=O)[C@@H](CCN)NC(=O)[C@H](CCN)NC1=O)C(=O)N[C@@H](Cc1ccc(O)cc1)C(=O)N2 [Example 43, cyclo(-Leu-Cys-Tyr-Cys-Dab-^DDab-Dab-Trp-Cys-Tyr-Cys-Val-^DPro-Arg-)] (HELM PEPTIDE1{C.[Dab].[NCC[C@@H](N[*:1])C(=O)[*:2]].[Dab].W.C.Y.C.V.[dP].R.L.C.Y}$PEPTIDE1,PEPTIDE1,1:R3-6:R3|PEPTIDE1,PEPTIDE1,8:R3-13:R3|PEPTIDE1,PEPTIDE1,1:R1-14:R2$$$V2.0)	2	2	4	1					
CC(C)C[C@@H]1NC(=O)[C@@H]2CSSC[C@H](NC(=O)[C@H](C(C)C)NC(=O)[C@H](CCCNC(=N)N)NC(=O)[C@@H](CCN)NC1=O)C(=O)N[C@@H](Cc1ccc(O)cc1)C(=O)N[C@@H](CC(N)=O)C(=O)N[C@@H](CCCN)C(=O)N[C@H](CCN)C(=O)N[C@@H](CCN)C(=O)N[C@@H](Cc1c[nH]c3ccccc13)C(=O)N[C@@H](CO)C(=O)N[C@@H](Cc1ccc(O)cc1)C(=O)N2 [Example 69, cyclo(-Val-Cys-Tyr-Asn-Orn-^DDab-Dab-Trp-Ser-Tyr-Cys-Leu-^DDab-Arg-)] (HELM PEPTIDE1{C.L.[NCC[C@@H](N[*:1])C(=O)[*:2]].R.V.C.Y.N.[Orn].[NCC[C@@H](N[*:1])C(=O)[*:2]].[Dab].W.S.Y}$PEPTIDE1,PEPTIDE1,1:R3-6:R3|PEPTIDE1,PEPTIDE1,1:R1-14:R2$$$V2.0)		1	1	1					1
CC(C)C[C@@H]1NC(=O)[C@H](CCCNC(=N)N)NC(=O)[C@@H](CCN)NC(=O)[C@H](C(C)C)NC(=O)[C@@H]2CSSC[C@H](NC1=O)C(=O)N[C@@H](Cc1ccc(O)cc1)C(=O)N[C@@H](CCC(N)=O)C(=O)N[C@@H](CCCN)C(=O)N[C@H](CCN)C(=O)N[C@@H](CCN)C(=O)N[C@@H](Cc1c[nH]c3ccccc13)C(=O)N[C@@H](CO)C(=O)N[C@@H](Cc1ccc(O)cc1)C(=O)N2 [Example 62, cyclo(-Leu-Cys-Tyr-Gln-Orn-^DDab-Dab-Trp-Ser-Tyr-Cys-Val-^DDab-Arg-)] (HELM PEPTIDE1{C.V.[NCC[C@@H](N[*:1])C(=O)[*:2]].R.L.C.Y.Q.[Orn].[NCC[C@@H](N[*:1])C(=O)[*:2]].[Dab].W.S.Y}$PEPTIDE1,PEPTIDE1,1:R3-6:R3|PEPTIDE1,PEPTIDE1,1:R1-14:R2$$$V2.0)		1	0.375	0.625					2
CC(C)C[C@@H]1NC(=O)[C@H](CCCNC(=N)N)NC(=O)[C@@H](CCN)NC(=O)[C@H](C(C)C)NC(=O)[C@@H]2CSSC[C@H](NC1=O)C(=O)N[C@@H](Cc1ccc(O)cc1)C(=O)N[C@@H](C)C(=O)N[C@@H](CCCN)C(=O)N[C@H](CCN)C(=O)N[C@@H](CCN)C(=O)N[C@@H](Cc1c[nH]c3ccccc13)C(=O)N[C@@H](C)C(=O)N[C@@H](Cc1ccc(O)cc1)C(=O)N2 [Example 23, cyclo(-Leu-Cys-Tyr-Ala-Orn-^DDab-Dab-Trp-Ala-Tyr-Cys-Val-^DDab-Arg-)] (HELM PEPTIDE1{A.[Orn].[NCC[C@@H](N[*:1])C(=O)[*:2]].[Dab].W.A.Y.C.V.[NCC[C@@H](N[*:1])C(=O)[*:2]].R.L.C.Y}$PEPTIDE1,PEPTIDE1,8:R3-13:R3|PEPTIDE1,PEPTIDE1,1:R1-14:R2$$$V2.0)		1	2	0.75					1
